Experiment [1] addresses T1, Major capsid protein L1 (Human papillomavirus 16) (UniProt P03101).
T1 sequence (whole entry): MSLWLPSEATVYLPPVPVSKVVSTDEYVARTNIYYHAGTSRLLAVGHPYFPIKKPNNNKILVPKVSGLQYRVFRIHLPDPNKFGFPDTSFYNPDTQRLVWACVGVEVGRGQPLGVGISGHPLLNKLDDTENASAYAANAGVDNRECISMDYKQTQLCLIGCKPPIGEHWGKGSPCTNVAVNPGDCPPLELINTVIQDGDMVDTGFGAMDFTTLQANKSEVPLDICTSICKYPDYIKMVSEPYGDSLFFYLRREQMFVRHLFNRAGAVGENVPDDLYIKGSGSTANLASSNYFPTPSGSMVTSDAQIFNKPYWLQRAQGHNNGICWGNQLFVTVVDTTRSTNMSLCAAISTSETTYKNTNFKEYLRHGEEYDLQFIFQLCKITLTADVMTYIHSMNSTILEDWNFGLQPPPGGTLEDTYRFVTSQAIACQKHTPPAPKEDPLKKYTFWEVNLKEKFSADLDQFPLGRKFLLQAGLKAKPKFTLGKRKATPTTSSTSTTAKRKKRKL
Briefly: Inhibition of GST-tagged HPV16 major capsid protein L1 pentamer formation at 1:100 ratio of pentamer to compound in presence of PPase by FPLC method.

For experiment [2], the target named is T1, Major capsid protein L1 (Human papillomavirus 16). Kind of experiment: (§1) Inhibition of pentamer formation of GST-tagged HPV16 major capsid protein L1 assessed as increased L1-m peak formation incubated with compound after overnight PPase-mediated digestion by size-exclusion chromatography. A general note: In gel filtration, larger molecules generally elute earlier.

Experiment [3] shares this target. Kind of experiment: Binding affinity to GST-tagged HPV16 major capsid protein L1 assessed as increase in thermal stability by measuring melting temperature at 1:100 ratio of pentamer to compound by UV cloud point measurement assay.
Experiment [4] has the same target. Briefly: Binding affinity to GST-tagged HPV16 major capsid protein L1 by FRET assay.
Experiment [5] has the same target. Briefly: Binding affinity to GST-tagged HPV16 major capsid protein L1 pentamer formation at 1:100 ratio of pentamer to compound by CD spectroscopy method.
For experiment [6], the target named is T2, Major capsid protein L1 (Human papillomavirus 16, UniProt P03101).
T2 sequence (P03101 whole entry): T1 sequence (whole entry)
The experiment is described as §1.

Experiment [7] deals with T3, Major capsid protein L1 (human papillomavirus 58) (UniProt P26535).
T3 sequence (whole entry): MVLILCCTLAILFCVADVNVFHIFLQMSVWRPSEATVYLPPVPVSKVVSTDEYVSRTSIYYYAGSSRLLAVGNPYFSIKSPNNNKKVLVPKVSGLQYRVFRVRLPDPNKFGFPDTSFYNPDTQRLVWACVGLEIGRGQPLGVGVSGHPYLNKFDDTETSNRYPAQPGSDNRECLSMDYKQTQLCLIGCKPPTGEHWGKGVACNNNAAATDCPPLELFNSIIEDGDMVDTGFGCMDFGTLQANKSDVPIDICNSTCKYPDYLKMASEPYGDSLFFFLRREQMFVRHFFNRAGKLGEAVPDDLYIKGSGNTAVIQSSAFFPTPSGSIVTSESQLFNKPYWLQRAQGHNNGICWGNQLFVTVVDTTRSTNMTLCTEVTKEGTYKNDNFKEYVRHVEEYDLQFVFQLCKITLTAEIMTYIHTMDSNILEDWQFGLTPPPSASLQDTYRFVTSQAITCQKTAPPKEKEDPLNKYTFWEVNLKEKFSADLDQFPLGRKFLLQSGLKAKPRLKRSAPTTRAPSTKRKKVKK
Kind of experiment: Inhibition of GST-tagged HPV58 major capsid protein L1 pentamer formation at 1:100 ratio of pentamer to compound in presence of PPase by FPLC method.

In experiment [8] the target is T1, Major capsid protein L1 (Human papillomavirus 16). Briefly: Inhibition of GST-tagged HPV16 major capsid protein L1 pentamer assembly assessed as reduction in pentamer assembly in presence of PPase by static light scattering method.
Experiment [9] shares this target. Kind of experiment: Inhibition of pentamer formation of GST-tagged HPV16 major capsid protein L1 assessed as increased L1-m peak formation incubated with compound after overnight PPase-mediated digestion and measured after dialysis by dynamic light scattering method.
Experiment [10] has the same target. Briefly: Inhibition of GST-tagged HPV16 major capsid protein L1 pentamer assembly assessed as size distribution of hydrodynamic diameter of pentamer assembly in presence of PPase measured after dialysis by dynamic light scattering method and transmission electron microscopy.
Experiment [11] has the same target. Briefly: Inhibition of GST-tagged HPV16 major capsid protein L1 pentamer assembly assessed as size distribution of hydrodynamic diameter of pentamer assembly in presence of PPase by dynamic light scattering method (reference value: 14.9 nanometer).
The target of experiment [12] is T4, Major capsid protein L1 (human papillomavirus 18) (UniProt P06794).
T4 sequence (whole entry): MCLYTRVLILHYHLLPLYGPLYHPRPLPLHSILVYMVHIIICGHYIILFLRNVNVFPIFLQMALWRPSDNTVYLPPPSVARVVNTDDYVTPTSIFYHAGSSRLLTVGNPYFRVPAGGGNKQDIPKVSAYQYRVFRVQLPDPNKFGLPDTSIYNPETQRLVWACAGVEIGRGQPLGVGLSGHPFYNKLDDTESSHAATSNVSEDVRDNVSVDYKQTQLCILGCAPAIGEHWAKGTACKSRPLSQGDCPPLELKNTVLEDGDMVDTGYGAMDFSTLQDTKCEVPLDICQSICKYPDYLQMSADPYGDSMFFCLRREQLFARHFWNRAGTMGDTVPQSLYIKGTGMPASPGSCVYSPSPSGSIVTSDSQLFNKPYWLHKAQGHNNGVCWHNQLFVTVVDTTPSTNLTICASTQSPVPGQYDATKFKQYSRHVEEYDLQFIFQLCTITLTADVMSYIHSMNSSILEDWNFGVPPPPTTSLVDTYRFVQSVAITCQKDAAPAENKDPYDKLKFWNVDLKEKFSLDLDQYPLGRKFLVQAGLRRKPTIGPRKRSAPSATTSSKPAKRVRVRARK
Briefly: Inhibition of GST-tagged HPV18 major capsid protein L1 pentamer formation at 1:100 ratio of pentamer to compound in presence of PPase by FPLC method.

In experiment [13] the target is T1, Major capsid protein L1 (Human papillomavirus 16). Briefly: Inhibition of GST-tagged HPV16 major capsid protein L1 pentamer assembly assessed as reduction in pentamer assembly at 1:50 ratio of pentamer to compound in presence of PPase by static light scattering method.
In experiment [14] the target is T2, Major capsid protein L1. Kind of experiment: Binding affinity to GST-tagged HPV16 major capsid protein L1 using CY3-labeled compound by FRET assay.

The IC50 is the midpoint of a concentration-inhibition curve. Usually Kd stands for a measure of binding affinity in units of concentration.

The source made the active and inactive calls. The calls are words filed in the database; no cut-off is given here.

For H-PLGRKFL-OH, the inhibition result in experiment [1] was “inactive”.
As to H-SGFLRQLGFDKLQD-OH, the inhibition result in experiment [2] is “inactive”. The outcome in experiment [3] and in experiment [4] was inactive.
As to H-DLDQFPSSSKFLLQ-OH, in experiment [1], the inhibition result is “inactive”. Besides, the result in experiment [5] was inactive.
Take `CC(C)C[C@H](NC(=O)[C@H](CC(C)C)NC(=O)[C@H](Cc1ccccc1)NC(=O)[C@H](CCCCN)NC(=O)[C@H](CCCNC(=N)N)NC(=O)CNC(=O)[C@H](CC(C)C)NC(=O)[C@@H]1CCCN1C(=O)[C@H](Cc1ccccc1)NC(=O)[C@H](CCC(N)=O)NC(=O)[C@H](CC(=O)O)NC(=O)[C@H](CO)NC(=O)[C@@H](N)CC(=O)O)C(=O)N[C@@H](CCC(N)=O)C(=O)O`: in experiment [1], the inhibition entry is “inactive”.
Consider H-DLDQFPLGAKFLLQ-OH, for which the inhibition entry in experiment [1] is “inactive”. Further, in experiment [5], the outcome was inactive.
Consider H-QFPLGRKFL-OH, for which, in experiment [1], the inhibition result was “Active”.
With H-DLDQFPAGRKFLLQ-OH, in [1], the inhibition result is “inactive”. Further, the result in experiment [5] was inactive.
In the case of `CC(C)C[C@H](NC(=O)CNC(=O)[C@H](C)NC(=O)[C@H](CCC(N)=O)NC(=O)[C@H](CC(C)C)NC(=O)[C@H](CC(C)C)NC(=O)[C@H](Cc1ccccc1)NC(=O)[C@H](CCCCN)NC(=O)[C@H](CCCNC(=N)N)NC(=O)CNC(=O)[C@H](CC(C)C)NC(=O)[C@@H]1CCCN1)C(=O)N[C@@H](CCCCN)C(=O)N[C@@H](C)C(=O)N[C@@H](CCCCN)C(=O)O`, the IC50 on Major capsid protein L1 [6] amounted to 48.1 nM.
Regarding H-DLDQSPLGRKFLLQ-OH, in experiment [1], the inhibition entry is “inactive”.
Regarding H-DLDQFPLGR-OH, in experiment [1], the inhibition entry was “inactive”.
As for `CC(C)C[C@H](NC(=O)[C@H](CC(C)C)NC(=O)[C@H](Cc1ccccc1)NC(=O)[C@H](CCCCN)NC(=O)[C@H](CCCNC(=N)N)NC(=O)CNC(=O)[C@H](CC(C)C)NC(=O)[C@@H]1CCCN1C(=O)[C@H](Cc1ccccc1)NC(=O)[C@H](CCC(N)=O)NC(=O)[C@H](CC(=O)O)NC(=O)[C@H](CC(C)C)NC(=O)[C@@H](N)CC(=O)O)C(=O)N[C@@H](CCC(N)=O)C(=O)O`, the inhibition result in experiment [7] and in experiment [13] was “Active” each time. The inhibition entry in [8] and in experiment [2] was “Dose-dependent effect” throughout. For the same molecule, the outcome in experiment [9] and in experiment [10] was inactive. At Major capsid protein L1 [6], the IC50 is 19.4 nM. Also, the outcome in experiment [3] was Active. For the same molecule, the Activity in experiment [11] came out at 9.4 nm. For the same molecule, in experiment [12], the inhibition result is “inactive”. This molecule gave a dissociation constant (Kd) on Major capsid protein L1 [14] of 600 nM.

The values above are taken from ChEMBL document CHEMBL3576862, “Peptidic inhibitors for in vitro pentamer formation of human papillomavirus capsid protein l1” (ACS Med Chem Lett, 2015).
